Measured values published in PubChem BioAssay (NCI).
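A five-concentration, 48-hour dose response in 96-well plates underlies each endpoint, interpolated linearly between surrounding concentrations. At the GI50, growth is halved. At the TGI there is no net growth.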

Assays:
Assay in all cases: growth of human tumour cells (NCI), 48 h
[1] = tested on: ACHN renal
[2] = tested on: HCT-15 colon
[3] = tested on: HT29 colon
[4] = tested on: K-562 leukemia
[5] = tested on: KM12 colon
[6] = tested on: MDA-N
[7] = tested on: PC-3 prostate
[8] = tested on: SN12C renal
[9] = tested on: SNB-75 CNS
[10] = tested on: T-47D breast

Nc1nc(Cl)cc(Oc2ccc(Cl)cc2)n1
TGI [1]: > 100 µM | TGI [2]: > 100 µM | TGI [3]: > 100 µM | TGI [4]: > 100 µM | TGI [5]: > 100 µM | TGI [6]: > 100 µM | TGI [7]: > 100 µM | TGI [8]: > 100 µM | TGI [9]: > 100 µM | TGI [10]: > 100 µM

C#CCn1c(=O)c2cc(OC)c(OC)cc2n(CC#C)c1=O
TGI [1]: > 10 µM | TGI [2]: > 10 µM | TGI [3]: > 10 µM | TGI [4]: > 10 µM | TGI [5]: > 10 µM | TGI [6]: > 10 µM | TGI [7]: > 10 µM | TGI [8]: > 10 µM | TGI [9]: > 10 µM | TGI [10]: > 10 µM

COc1c(C(=O)CC2c3c(cc4oc(C)cc(=O)c4c3OC)OC(=N)C2c2nc3ccccc3[nH]2)c(O)c(OC)c2occc12 (stereo unspecified)
TGI [1]: > 100 µM | TGI [2]: > 100 µM | TGI [3]: > 100 µM | TGI [4]: > 100 µM | TGI [5]: > 100 µM | TGI [6]: > 100 µM | TGI [7]: > 100 µM | TGI [8]: > 100 µM | TGI [9]: > 100 µM | TGI [10]: > 100 µM

Clc1cccc(C=NC23CC4CC(CC(C4)C2)C3)c1Cl
TGI [1]: > 10 µM | TGI [2]: > 10 µM | TGI [3]: > 10 µM | TGI [4]: > 10 µM | TGI [5]: > 10 µM | TGI [6]: > 10 µM | TGI [7]: > 10 µM | TGI [8]: > 10 µM | TGI [9]: > 10 µM | TGI [10]: > 10 µM

COc1cc([C@@H]2c3cc4c(cc3[C@H](OC3OC5COC(C(C)C)OC5C(O)C3O)C3COC(=O)[C@@H]32)OCO4)cc(OC)c1OC (stereo partly specified)
TGI [1]: 21.2 µM | TGI [2]: 94.1 µM | TGI [3]: 7.11 µM | TGI [4]: > 100 µM | TGI [5]: 18 µM | TGI [6]: 3.53 µM | TGI [7]: 22.4 µM | TGI [8]: > 100 µM | TGI [9]: 96.8 µM | TGI [10]: 65.5 µM

CCCC(CCC(=O)O)(CCC(=O)O)[N+](=O)[O-]
TGI [1]: > 100 µM | TGI [2]: > 100 µM | TGI [3]: > 100 µM | TGI [4]: > 100 µM | TGI [5]: > 100 µM | TGI [6]: > 100 µM | TGI [7]: > 100 µM | TGI [8]: > 100 µM | TGI [9]: > 100 µM | TGI [10]: > 100 µM

Cc1[nH]c(-c2ccccc2)c(O)c1C(=O)OC1CC(C)CCC1C(C)C (stereo unspecified)
TGI [1]: 30 µM | TGI [2]: 32.1 µM | TGI [3]: 27.5 µM | TGI [4]: > 100 µM | TGI [5]: 27.9 µM | TGI [6]: 29.9 µM | TGI [7]: 26.7 µM | TGI [8]: 29.1 µM | TGI [9]: 34.3 µM | TGI [10]: 26.8 µM

CCc1cc2c(cc1O)CC[C@@H]1[C@@H]2CC[C@]2(C)[C@@H](O)CC[C@@H]12
TGI [1]: 22.9 µM | TGI [2]: 29.2 µM | TGI [3]: 29.3 µM | TGI [4]: 14.5 µM | TGI [5]: 17.4 µM | TGI [6]: 8.62 µM | TGI [7]: 37.3 µM | GI50 [8]: 7.3 µM | TGI [8]: 20 µM | TGI [9]: 7.59 µM | TGI [10]: 32.9 µM

CCCCCCCCC/C=C1/CC(CO)(COC(=O)C2CCCCC2)OC1=O (stereo unspecified)
TGI [1]: > 100 µM | TGI [2]: > 100 µM | TGI [3]: > 100 µM | TGI [4]: > 100 µM | TGI [5]: > 100 µM | TGI [6]: > 100 µM | TGI [7]: > 100 µM | TGI [8]: > 100 µM | TGI [9]: > 100 µM | TGI [10]: > 100 µM

COc1ccc2cc(CNCCOCCOCCNCc3ccc4cc(OC)ccc4c3)ccc2c1
TGI [1]: 3.01 µM | TGI [2]: 1.63 µM | TGI [3]: 0.394 µM | TGI [4]: 1.92 µM | TGI [5]: 2.27 µM | TGI [6]: 2.35 µM | TGI [7]: 3.16 µM | TGI [8]: 3.85 µM | TGI [9]: 3.03 µM | TGI [10]: 3.22 µM

Cc1ccc(S(=O)(=O)N(CC(O)COc2ccccc2)c2ccccc2Cl)cc1 (stereo unspecified)
TGI [1]: 33.7 µM | TGI [2]: 29.3 µM | TGI [3]: 31.9 µM | TGI [4]: 36.1 µM | TGI [5]: 30.5 µM | TGI [6]: 33.2 µM | TGI [7]: 30.8 µM | TGI [8]: 29.4 µM | TGI [9]: 41.7 µM | TGI [10]: 69.7 µM

O=c1oc2c(Cl)cc(Cl)cc2cc1-c1cn2c(n1)sc1ccccc12
TGI [1]: > 100 µM | TGI [2]: > 100 µM | TGI [3]: > 100 µM | TGI [4]: 53.3 µM | TGI [5]: > 100 µM | TGI [6]: > 100 µM | TGI [7]: > 100 µM | TGI [8]: > 100 µM | TGI [9]: > 100 µM | TGI [10]: > 100 µM

Clc1ccc(CCNCCNC2(c3cc4ccccc4s3)CCCCC2)cc1Cl
TGI [1]: 3.1 µM | TGI [2]: 3.61 µM | TGI [3]: 3.59 µM | TGI [4]: 4.52 µM | TGI [5]: 3.1 µM | TGI [6]: 3.33 µM | TGI [7]: 3.11 µM | TGI [8]: 3.53 µM | TGI [9]: 3.72 µM | TGI [10]: 4.07 µM

CCOC(=O)/C(C(N)=O)=C(/O)c1cnccn1
TGI [1]: > 100 µM | TGI [2]: > 100 µM | TGI [3]: > 100 µM | TGI [4]: > 100 µM | TGI [5]: > 100 µM | TGI [6]: > 100 µM | TGI [7]: > 100 µM | TGI [8]: > 100 µM | TGI [9]: > 100 µM | TGI [10]: > 100 µM

COc1cc2c(cc1OC)C/C(=N\O)c1cc(OC)c(OC)cc1/C=C\2
TGI [1]: > 100 µM | TGI [2]: > 100 µM | TGI [3]: 15.4 µM | TGI [4]: > 100 µM | TGI [5]: 95.8 µM | TGI [6]: > 100 µM | TGI [7]: > 100 µM | TGI [8]: > 100 µM | TGI [9]: 78.1 µM | TGI [10]: > 84.3 µM
